Values of other authors in US20050069593A1, “Nutritional supplement containing 7-Keto-DHEA and conjugated linoleic acid” (LIFE TIME FITNESS, Inc., priority 2003, published 2005).

System: brown adipose tissue
Details: in vitro; Dulloo, et al., Int. J. Obes. Relat. Metab. Disord. 24, 252 (2000)

## O=C(O[C@@H]1Cc2c(O)cc(O)cc2O[C@@H]1c1cc(O)c(O)c(O)c1)c1cc(O)c(O)c(O)c1 [EGCG, epigallocatechin gallate]
  respiration rate of brown adipose tissue: increased
